Measurements taken from patent US11612606B2, “8-aminoisoquinoline compounds and uses thereof” (priority 2018, dated 2023).
Structures can show the parent of a compound that is named as a salt. Where two headings read alike, the source gives them in different places.

Columns and labels:
[1] = target: HPK full length, T165E S171E (Homo sapiens (Human), UniProt Q92918, S171E/T165E); assay: HPK1-FL HTRF enzymatic assay ("HTRF"); format: biochemical; conditions: ATP 1 mM, read-out: HPK1 Ki
How it was run: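 Full-length HPK1 (T165E/S171E) was preincubated 30 min with compound, then reacted 60 min with biotin-SLP-76 and 1 mM ATP. Phospho-SLP-76 was detected by HTRF (Eu-anti-pSLP76 antibody, SA-XL665) after a further 60 min.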

[2] = test system: primary human pan T cells; assay: Human T-cell IL2 induction assay; format: cell-based
Procedure: Assay Principle: Anti-CD3 and anti-CD28 activates TCR signaling in primary human pan T cells leading to IL-2 promoter induction. Secreted IL-2 in cell culture supernatant is detected by electrochemiluminescence using a capture antibody against IL-2 and an anti-IL-2 antibody labeled with SULFO-tag. Also see www.mesoscale.com for additional electrochemiluminescence technology information.
Assay Procedure: Incubate primary human pan T cells with varying concentrations of test compounds for 30 minutes in a humidified incubator at 37° C. and 5% CO2. Transfer cells to a plate pre-coated with a fixed concentration of anti-human CD3 (determined separately for each donor lot) and add soluble anti-human CD28 (final concentration=1 μg/ml). Stimulate cells in a humidified incubator at 37° C. and 5% CO2 for 4 hours. Transfer 25 μl of supernatant to a MSD single spot plate pre-coated with an anti-human IL-2 antibody. Incubate MSD plate overnight at 4° C. with gentle shaking. Wash MSD plate 4× with wash buffer. Add SULFO-tagged detection antibody at a 1:50 dilution and incubate at room temperature shaking for 2 hours. Wash MSD plate 4× with wash buffer and add 150 μl 2×MSD read buffer. Read on an MSD instrument. Normalize data to stimulated/untreated controls to calculate % activity at each concentration of compound.
Instrumentation: • Biomek FX for liquid handling (Beckman Coulter) • MSD SECTOR S 600 (Meso Scale Discovery)
Exemplary compounds of Formula (I) were tested in the human T-cell IL-2 induction assays.

HPK full length, T165E S171E, sequence (Q92918 whole entry T165E/S171E, looked up): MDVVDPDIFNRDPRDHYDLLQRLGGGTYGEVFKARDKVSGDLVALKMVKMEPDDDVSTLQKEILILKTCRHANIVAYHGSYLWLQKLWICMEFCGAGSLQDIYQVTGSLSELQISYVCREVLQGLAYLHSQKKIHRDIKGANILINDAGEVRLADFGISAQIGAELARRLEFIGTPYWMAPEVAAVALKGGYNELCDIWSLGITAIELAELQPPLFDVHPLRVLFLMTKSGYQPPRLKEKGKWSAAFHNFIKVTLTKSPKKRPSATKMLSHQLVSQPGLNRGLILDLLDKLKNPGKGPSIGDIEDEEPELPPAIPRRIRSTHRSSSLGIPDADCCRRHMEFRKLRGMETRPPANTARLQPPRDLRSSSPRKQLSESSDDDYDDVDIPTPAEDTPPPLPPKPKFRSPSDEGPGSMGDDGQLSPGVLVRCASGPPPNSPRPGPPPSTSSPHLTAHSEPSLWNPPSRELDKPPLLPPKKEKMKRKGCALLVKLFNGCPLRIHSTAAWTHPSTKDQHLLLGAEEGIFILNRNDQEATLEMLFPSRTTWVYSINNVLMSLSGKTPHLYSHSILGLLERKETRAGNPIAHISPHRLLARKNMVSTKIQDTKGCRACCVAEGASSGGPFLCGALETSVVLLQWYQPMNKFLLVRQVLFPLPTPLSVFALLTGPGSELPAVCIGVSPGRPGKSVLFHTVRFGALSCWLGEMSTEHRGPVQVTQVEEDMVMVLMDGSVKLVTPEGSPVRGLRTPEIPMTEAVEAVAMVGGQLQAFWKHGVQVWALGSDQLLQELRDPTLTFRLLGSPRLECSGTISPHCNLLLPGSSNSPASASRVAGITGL

Cc1c(-c2cc3cc(NC(=O)O[C@H]4COC[C@@H]4F)ncc3c(N)c2F)cnc2c1NCCO2 (single isomer, unassigned) [Compound 477b]
Ki [1]: 0.017 nM | % IL-2 increase relative to untreated cells ([2]; assayed concentration 5.469 μM): 1494%

Cc1c(-c2cc3cc(NC(=O)O[C@H]4CCC[C@@H]4C#N)ncc3c(N)c2F)cnc2c1NCCO2 (single isomer, unassigned) [Compound 482b]
Ki [1]: < 0.013 nM | % IL-2 increase relative to untreated cells ([2]; assayed concentration 2.778 μM): 1719%

Cc1c(-c2cc3cc(NC(=O)O[C@@H]4CCC(=O)N(C)C4)ncc3c(N)c2F)cnc2c1NCCO2 [Compound 409b, (R)-1-Methyl-6-oxopiperidin-3-yl (8-amino-7-fluoro-6-(8-methyl-2,3-dihydro-1H-pyrido[2,3-b][1,4]oxazin-7-yl)isoquinolin-3-yl)carbamate]
Ki [1]: 0.048 nM | % IL-2 increase relative to untreated cells ([2]; assayed concentration 2.778 μM): 2838%

Cc1c(-c2cc3cc(NC(=O)O[C@H]4CCN(C)C4)ncc3c(N)c2F)cnc2c1NCCO2 [Compound 411a, (S)-1-Methylpyrrolidin-3-yl (8-amino-7-fluoro-6-(8-methyl-2,3-dihydro-1H-pyrido[2,3-b][1,4]oxazin-7-yl)isoquinolin-3-yl)carbamate]
Ki [1]: 0.25 nM | % IL-2 increase relative to untreated cells ([2]; assayed concentration 2.778 μM): 2119%

Cc1c(-c2cc3cc(NC(=O)O[C@@H]4CCCN(C)C4)ncc3c(N)c2F)cnc2c1NCCO2 [Compound 416a, (R)-1-Methylpiperidin-3-yl (8-amino-7-fluoro-6-(8-methyl-2,3-dihydro-1H-pyrido[2,3-b][1,4]oxazin-7-yl)isoquinolin-3-yl)carbamate]
Ki [1]: 0.075 nM | % IL-2 increase relative to untreated cells ([2]; assayed concentration 2.778 μM): 2989%

Cc1c(-c2cc3cc(NC(=O)O[C@@H]4CCN(C5COC5)C[C@H]4F)ncc3c(N)c2F)cnc2c1NCCO2 [Compound 445b, (3R,4R)-3-Fluoro-1-(oxetan-3-yl)piperidin-4-yl(8-amino-7-fluoro-6-(8-methyl-2,3-dihydro-1H-pyrido[2,3-b][1,4]oxazin-7-yl)isoquinolin-3-yl)carbamate]
% IL-2 increase relative to untreated cells ([2]; assayed concentration 2.778 μM): 1436%

Cc1c(-c2cc3cc(NC(=O)OC4CC(C)(O)C4)ncc3c(N)c2F)cnc2c1NCCO2 (stereo not shown) [Compound 486, (3-Hydroxy-3-methyl-cyclobutyl) N-[8-amino-7-fluoro-6-(8-methyl-2,3-dihydro-1H-pyrido[2,3-b][1,4]oxazin-7-yl)-3-isoquinolyl]carbamate]
Ki [1]: < 0.013 nM | % IL-2 increase relative to untreated cells ([2]; assayed concentration 2.778 μM): 1400%

CC[C@]1(O)C[C@H](OC(=O)Nc2cc3cc(-c4cnc5c(c4C)NCCO5)c(F)c(N)c3cn2)C1 [Compound 512b, (1r,3s)-3-Ethyl-3-hydroxycyclobutyl (8-amino-7-fluoro-6-(8-methyl-2,3-dihydro-1H-pyrido[2,3-b][1,4]oxazin-7-yl)isoquinolin-3-yl)carbamate hydrochloride]
Ki ([1]; hydrochloride): < 0.013 nM | % IL-2 increase relative to untreated cells ([2]; assayed concentration 2.778 μM): 2613%

Cc1c(-c2cc3cc(NC(=O)O[C@H]4C[C@@](C)(O)[C@H]4C)ncc3c(N)c2F)cnc2c1NCCO2 [Compound 526b, (1S,2S,3R)-3-Hydroxy-2,3-dimethylcyclobutyl (8-amino-7-fluoro-6-(8-methyl-2,3-dihydro-1H-pyrido[2,3-b][1,4]oxazin-7-yl)isoquinolin-3-yl)carbamate]
Ki [1]: 0.016 nM | % IL-2 increase relative to untreated cells ([2]; assayed concentration 2.778 μM): 970%

Cc1c(-c2cc3cc(NC(=O)O[C@H]4C[C@](C)(O)[C@@H]4C)ncc3c(N)c2F)cnc2c1NCCO2 [Compound 526c, (1S,2R,3S)-3-Hydroxy-2,3-dimethylcyclobutyl (8-amino-7-fluoro-6-(8-methyl-2,3-dihydro-1H-pyrido[2,3-b][1,4]oxazin-7-yl)isoquinolin-3-yl)carbamate]
Ki [1]: 0.015 nM | % IL-2 increase relative to untreated cells ([2]; assayed concentration 2.778 μM): 1677%

Cc1c(-c2cc3cc(NC(=O)O[C@H]4CC[C@@H]4C#N)ncc3c(N)c2F)cnc2c1NCCO2 [Compound 535a, (1S,2R)-2-Cyanocyclobutyl (8-amino-7-fluoro-6-(8-methyl-2,3-dihydro-1H-pyrido[2,3-b][1,4]oxazin-7-yl)isoquinolin-3-yl)carbamate]
Ki [1]: < 0.013 nM | % IL-2 increase relative to untreated cells ([2]; assayed concentration 2.778 μM): 831%

Cc1c(-c2cc3cc(NC(=O)O[C@H]4C[C@@H](CC#N)C4)ncc3c(N)c2F)cnc2c1NCCO2 [Compound 536b, (1s,3r)-3-(Cyanomethyl)cyclobutyl (8-amino-7-fluoro-6-(8-methyl-2,3-dihydro-1H-pyrido[2,3-b][1,4]oxazin-7-yl)isoquinolin-3-yl)carbamate]
% IL-2 increase relative to untreated cells ([2]; assayed concentration 8.333 μM): 2280%

Cc1c(-c2cc3cc(NC(=O)O[C@H]4C[C@H](N5CCOCC5)C4)ncc3c(N)c2F)cnc2c1NCCO2 [Compound 550a, (1r,3r)-3-Morpholinocyclobutyl (8-amino-7-fluoro-6-(8-methyl-2,3-dihydro-1H-pyrido[2,3-b][1,4]oxazin-7-yl)isoquinolin-3-yl)carbamate]
Ki [1]: < 0.013 nM | % IL-2 increase relative to untreated cells ([2]; assayed concentration 2.778 μM): 1059%

Cc1c(-c2cc3cc(NC(=O)NC4CCOCC4)ncc3c(N)c2F)cnc2c1NCCO2 [Compound 701, 1-(8-Amino-7-fluoro-6-(8-methyl-2,3-dihydro-1H-pyrido[2,3-b][1,4]oxazin-7-yl)isoquinolin-3-yl)-3-(tetrahydro-2H-pyran-4-yl)urea]
Ki [1]: < 0.013 nM | % IL-2 increase relative to untreated cells ([2]; assayed concentration 2.778 μM): 4163%

Cc1c(-c2cc3cc(NC(=O)N[C@H]4CCC[C@H]4F)ncc3c(N)c2F)cnc2c1NCCO2 [Compound 727b, 1-[8-Amino-7-fluoro-6-(8-methyl-2,3-dihydro-1H-pyrido[2,3-b][1,4]oxazin-7-yl)-3-isoquinolyl]-3-[(1S,2R)-2-fluorocyclopentyl]urea]
Ki [1]: < 0.013 nM | % IL-2 increase relative to untreated cells ([2]; assayed concentration 0.926 μM): 938%
